From paper PMC9909651 (Acta Pharmacologica Sinica, 2023)
“Also recorded” adds a separate entry of the source.

What was measured:
[1] = target: VP30/NP interface (VP30_110–272 protein, NP-FITC peptide) (Zaire ebolavirus, UniProt Q05323); assay: biochemical; assay type: binding, Ebola virus
VP30_110–272 protein [2] = target: T1, VP30_110–272 protein (Zaire ebolavirus, UniProt Q05323); assay type: binding, Ebola virus
VP30_110–272 protein [3] = target: T1, VP30_110–272 protein; assay: biochemical; assay type: binding, Ebola virus
[4] = tested on: EBOV minigenome in Huh7-4P cells; assay type: cell-based, Ebola virus
VP30 protein = VP30 protein (Zaire ebolavirus, UniProt Q05323); assay type: binding, Ebola virus
[5] = tested on: EBOV minigenome in Huh7-4P cells; assay type: cell-based, Ebola virus; remark: listed apart in the source
[6] = target: NP-FITC (NP-derived VP30-binding peptide labelled with FITC) (Ebola virus (EBOV)); assay: fluorescence polarisation
[7] = target: T2, Ebola virus VP30 110-272 protein (MBP tag removed) (Ebola virus (EBOV)), Q05323; assay: fluorescence polarisation
T2 chain: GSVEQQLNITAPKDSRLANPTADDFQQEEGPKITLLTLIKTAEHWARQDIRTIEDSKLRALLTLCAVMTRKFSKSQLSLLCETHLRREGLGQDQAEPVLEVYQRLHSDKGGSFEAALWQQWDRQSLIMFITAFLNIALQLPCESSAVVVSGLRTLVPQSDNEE

O=C(O)c1cnc(O)nc1O [2,4-dihydroxypyrimidine-5-carboxylic acid]
competitive FP assay, result in words [1]: failed in the FP concentration gradient experiment

CCCCCCCCCCCC1=C(O)C(=O)C=C(O)C1=O [Embelin]
IC50 ([1]; IC50, competitive FP assay): 33.2 µM | effect on stability / melting temperature (Tm) of VP30, TSA (VP30_110–272 protein [2]): can specifically bind to VP30 and change its melting temperature Tm; also recorded: increased the stability of VP30 at pH 6.5, 7.0, 7.5 and 8.0 | Kd (VP30_110–272 protein [3]): 4.62 µM

Cc1cc(SCc2sc(-c3ccc(C(F)(F)F)c(F)c3)nc2C)ccc1OCC(=O)O [GW0742]
antiviral activity in MG assay, in words [4]: good antiviral activity | binding to VP30 already bound to Embelin or 8-gingerol, synergy SPR (VP30 protein): a reduction in binding was observed | synergistic effect, in words [5]: does not exhibit obvious synergistic effects

B1: Ebola virus VP30 110-272 protein (MBP tag removed), Q05323 110-272 (domain or fragment)
chain: GSVEQQLNITAPKDSRLANPTADDFQQEEGPKITLLTLIKTAEHWARQDIRTIEDSKLRALLTLCAVMTRKFSKSQLSLLCETHLRREGLGQDQAEPVLEVYQRLHSDKGGSFEAALWQQWDRQSLIMFITAFLNIALQLPCESSAVVVSGLRTLVPQSDNEE
IC50 [6]: 3.07 µM

PTVAPPAPVYR (modifications not checked) [unlabeled NP peptide (NP-derived VP30-binding peptide)]
IC50 [7]: 0.33 µM
